tested on: endogenous cellular STAT1 (phosphorylated at Tyr701) in NCI-H1373 cells; test: Phospho-STAT1 (Tyr701) LANCE Ultra TR-FRET Detection Assay; assay type: cell-based; conditions: Homo sapiens, NCI-H1373, 48 h, phospho-STAT1 (Tyr701) induction, read-out: NH1373 pSTAT1 EC50

Q: For O=c1[nH]ncc(N[C@H]2CCC[C@@H](Cn3ccc4cc(-c5ncc(C(F)(F)F)cn5)c(F)c(F)c4c3=O)C2)c1C(F)(F)F [Example 232, 7,8-difluoro-2-(((1R,3S)-3-((6-oxo-5-(trifluoromethyl)-1,6-dihydropyridazin-4-yl)amino)cyclohexyl)methyl)-6-(5-(trifluoromethyl)pyrimidin-2-yl)isoquinolin-1(2H)-one], which EC50 is on record?
A: 1.67 nM

Q: With CNc1cnc(-c2cc3ccn(C[C@@H]4CCC[C@H](Nc5cn[nH]c(=O)c5C(F)(F)F)C4)c(=O)c3cc2F)cn1 [Example 274, 7-fluoro-6-(5-(methylamino)pyrazin-2-yl)-2-(((1R,3S)-3-((6-oxo-5-(trifluoromethyl)-1,6-dihydropyridazin-4-yl)amino)cyclohexyl)methyl)isoquinolin-1(2H)-one] as the compound, how does the EC50 read?
A: 78 nM

Q: With Nc1nc(-c2cc3ccn(C[C@@H]4CCC[C@H](Nc5cn[nH]c(=O)c5C(F)(F)F)C4)c(=O)c3c(F)c2F)ccc1C(F)(F)F [Example 252, 6-(6-amino-5-(trifluoromethyl)pyridin-2-yl)-7,8-difluoro-2-(((1R,3S)-3-((6-oxo-5-(trifluoromethyl)-1,6-dihydropyridazin-4-yl)amino)cyclohexyl)methyl)isoquinolin-1(2H)-one] as the compound, how does the EC50 read?
A: 16.2 nM

Q: How did the EC50 turn out when C[C@@H](CCCn1ccc2cc(-c3cnc(C(F)F)c(N)n3)c(F)cc2c1=O)Nc1cn[nH]c(=O)c1C(F)(F)F [Example 324, (S)-6-(6-amino-5-(difluoromethyl)pyrazin-2-yl)-7-fluoro-2-(4-((6-oxo-5-(trifluoromethyl)-1,6-dihydropyridazin-4-yl)amino)pentyl)isoquinolin-1(2H)-one] was run?
A: 4.65 nM

Q: CC(C)(O)c1ccc(-c2cc3ccn(C[C@@H]4CCC[C@H](Nc5cn[nH]c(=O)c5C(F)(F)F)C4)c(=O)c3cc2F)nc1 [Example 283, 7-fluoro-6-(5-(2-hydroxypropan-2-yl)pyridin-2-yl)-2-(((1R,3S)-3-((6-oxo-5-(trifluoromethyl)-1,6-dihydropyridazin-4-yl)amino)cyclohexyl)methyl)isoquinolin-1(2H)-one] was tested. Which EC50 did it give?
A: 113 nM

Q: CNc1nc(-c2cc3ccn(CCC[C@H](C)Nc4cn[nH]c(=O)c4C(F)(F)F)c(=O)c3cc2F)ncc1C(F)(F)F [Example 106, 7-fluoro-6-[4-(methylamino)-5-(trifluoromethyl)pyrimidin-2-yl]-2-[(4S)-4-[[6-oxo-5-(trifluoromethyl)-1H-pyridazin-4-yl]amino]pentyl]isoquinolin-1-one] was tested. Which EC50 did it give?
A: 2.31 nM

Q: How did the EC50 turn out when C[C@@H](CCCn1ccc2cc(-c3ncc(C#N)c(N)n3)c(F)c(F)c2c1=O)Nc1cn[nH]c(=O)c1C(F)(F)F [Example 110, 4-amino-2-[7,8-difluoro-1-oxo-2-[(4S)-4-[[6-oxo-5-(trifluoromethyl)-1H-pyridazin-4-yl]amino]pentyl]-6-isoquinolyl]pyrimidine-5-carbonitrile] was run?
A: 13.4 nM

Q: Which EC50 does the source give for Cc1nc(-c2cc3ccn(CCC[C@H](C)Nc4cn[nH]c(=O)c4C(F)(F)F)c(=O)c3cc2F)nc(N)c1Cl [Example 319, (S)-6-(4-amino-5-chloro-6-methylpyrimidin-2-yl)-7-fluoro-2-(4-((6-oxo-5-(trifluoromethyl)-1,6-dihydropyridazin-4-yl)amino)pentyl)isoquinolin-1(2H)-one] here?
A: 2.92 nM

Q: CNc1nc(-c2cc3ncn(CCC[C@H](C)Nc4cn[nH]c(=O)c4C(F)(F)F)c(=O)c3cc2F)ncc1C(F)(F)F [Example 115, 6-fluoro-7-[4-(methylamino)-5-(trifluoromethyl)pyrimidin-2-yl]-3-[(4S)-4-[[6-oxo-5-(trifluoromethyl)-1H-pyridazin-4-yl]amino]pentyl]quinazolin-4-one] was tested. Which EC50 did it give?
A: 3.42 nM

Q: COc1cnc(-c2cc3ccn(CCC[C@H](C)Nc4cn[nH]c(=O)c4C(F)(F)F)c(=O)c3cc2F)nc1NC1COC1 [Example 217, (S)-7-fluoro-6-(5-methoxy-4-(oxetan-3-ylamino)pyrimidin-2-yl)-2-(4-((6-oxo-5-(trifluoromethyl)-1,6-dihydropyridazin-4-yl)amino)pentyl)isoquinolin-1(2H)-one] was tested. Which EC50 did it give?
A: 1580 nM

Q: Cc1nc(-c2cc3ccn(C[C@@H]4CCC[C@H](Nc5cn[nH]c(=O)c5C(F)(F)F)C4)c(=O)c3cc2F)nc(N)c1Cl [Example 276, 6-(4-amino-5-chloro-6-methylpyrimidin-2-yl)-7-fluoro-2-(((1R,3S)-3-((6-oxo-5-(trifluoromethyl)-1,6-dihydropyridazin-4-yl)amino)cyclohexyl)methyl)isoquinolin-1(2H)-one] was tested. Which EC50 did it give?
A: 10.3 nM

Q: Which EC50 does the source give for Nc1nc(-c2cc3ncn(CC[C@H]4CCC[C@@H]4Nc4cn[nH]c(=O)c4C(F)(F)F)c(=O)c3cc2F)cnc1C(F)(F)F [Example 465, 7-(6-amino-5-(trifluoromethyl)pyrazin-2-yl)-6-fluoro-3-(2-((1R,2S)-2-((6-oxo-5-(trifluoromethyl)-1,6-dihydropyridazin-4-yl)amino)cyclopentyl)ethyl)quinazolin-4(3H)-one] here?
A: 18 nM

Q: Which EC50 does the source give for C[C@@H](CCCn1cnc2cc(-c3ccc(C(F)(F)F)c(N)n3)c(F)cc2c1=O)Nc1cn[nH]c(=O)c1C(F)(F)F [Example 212] here?
A: 36.6 nM

Q: With O=c1[nH]ncc(N[C@H]2CCC[C@H]2CCn2ccc3cc(-c4ncc(C(F)(F)F)cn4)c(F)cc3c2=O)c1C(F)(F)F (racemic) [Example 437, (rac)-7-fluoro-2-(2-((1S,2S)-2-((6-oxo-5-(trifluoromethyl)-1,6-dihydropyridazin-4-yl)amino)cyclopentyl)ethyl)-6-(5-(trifluoromethyl)pyrimidin-2-yl)isoquinolin-1(2H)-one] as the compound, how does the EC50 read?
A: 102 nM

Q: Which EC50 does the source give for [2H][C@](C)(CCCn1ccc2cc(-c3ncc(C(F)(F)F)cn3)c(F)c(F)c2c1=O)Nc1cn[nH]c(=O)c1C(F)(F)F (single isomer, unassigned) [Example 87] here?
A: 10000 nM

Q: With C#C[C@H](CCCn1ccc2cc(-c3ncc(C(F)(F)F)cn3)c(F)cc2c1=O)Nc1cn[nH]c(=O)c1C(F)(F)F [Example 171, 7-fluoro-2-[(4S)-4-[[6-oxo-5-(trifluoromethyl)-1H-pyridazin-4-yl]amino]hex-5-ynyl]-6-[5-(trifluoromethyl)pyrimidin-2-yl]isoquinolin-1-one] as the compound, how does the EC50 read?
A: 257 nM

Q: With C[C@@H](CCCn1cnc2cc(-c3ncc(C(F)(F)F)c(N4CCC4)n3)c(F)cc2c1=O)Nc1cn[nH]c(=O)c1C(F)(F)F [Example 189, (S)-7-(4-(azetidin-1-yl)-5-(trifluoromethyl)pyrimidin-2-yl)-6-fluoro-3-(4-((6-oxo-5-(trifluoromethyl)-1,6-dihydropyridazin-4-yl)amino)pentyl)quinazolin-4(3H)-one] as the compound, how does the EC50 read?
A: 14.7 nM

Q: How did the EC50 turn out when Cn1nc(-c2cc3ccn(C[C@@H]4CCC[C@H](Nc5cn[nH]c(=O)c5C(F)(F)F)C4)c(=O)c3cc2F)cc1C(F)(F)F [Example 491, 7-fluoro-6-[1-methyl-5-(trifluoromethyl)pyrazol-3-yl]-2-[[(1R,3S)-3-[[6-oxo-5-(trifluoromethyl)-1H-pyridazin-4-yl]amino]cyclohexyl]methyl]isoquinolin-1-one] was run?
A: 50.5 nM

Q: How did the EC50 turn out when Nc1nc(-c2cc3ncn(C[C@@H]4CCC[C@H](Nc5cn[nH]c(=O)c5C(F)(F)F)C4)c(=O)c3cc2F)ncc1C(F)F [Example 236] was run?
A: 32.2 nM

Q: Which EC50 does the source give for N#CC[C@@H](CCCn1ccc2cc(-c3ncc(C(F)(F)F)cn3)c(F)cc2c1=O)Nc1cn[nH]c(=O)c1C(F)(F)F [Example 160, (3R)-6-[7-fluoro-1-oxo-6-[5-(trifluoromethyl)pyrimidin-2-yl]-2-isoquinolyl]-3-[[6-oxo-5-(trifluoromethyl)-1H-pyridazin-4-yl]amino]hexanenitrile] here?
A: 219 nM

Q: C[C@@H](CCCn1ccc2cc(-c3ncc(C(F)(F)F)cc3N)c(F)cc2c1=O)Nc1cn[nH]c(=O)c1C(F)(F)F [Example 328, (S)-6-(3-amino-5-(trifluoromethyl)pyridin-2-yl)-7-fluoro-2-(4-((6-oxo-5-(trifluoromethyl)-1,6-dihydropyridazin-4-yl)amino)pentyl)isoquinolin-1(2H)-one] was tested. Which EC50 did it give?
A: 78.6 nM

Q: How did the EC50 turn out when O=c1[nH]ncc(N[C@H](CCCn2cnc3cc(-c4cnc(C5CC5)cn4)c(F)cc3c2=O)COC(F)F)c1C(F)(F)F [Example 413, (R)-7-(5-cyclopropylpyrazin-2-yl)-3-(5-(difluoromethoxy)-4-((6-oxo-5-(trifluoromethyl)-1,6-dihydropyridazin-4-yl)amino)pentyl)-6-fluoroquinazolin-4(3H)-one] was run?
A: 4.59 nM

Q: O=c1[nH]ncc(N[C@H](CCCn2cnc3cc(-c4ncc(Cl)cn4)c(F)cc3c2=O)COC(F)F)c1C(F)(F)F [Example 394, (R)-7-(5-chloropyrimidin-2-yl)-3-(5-(difluoromethoxy)-4-((6-oxo-5-(trifluoromethyl)-1,6-dihydropyridazin-4-yl)amino)pentyl)-6-fluoroquinazolin-4(3H)-one] was tested. Which EC50 did it give?
A: 1.22 nM

Q: CN(CCCn1ccc2cc(-c3ncc(C(F)(F)F)cn3)c(F)cc2c1=O)Nc1cn[nH]c(=O)c1C(F)(F)F [Example 172, 7-fluoro-2-(3-(1-methyl-2-(6-oxo-5-(trifluoromethyl)-1,6-dihydropyridazin-4-yl)hydrazineyl)propyl)-6-(5-(trifluoromethyl)pyrimidin-2-yl)isoquinolin-1(2H)-one] was tested. Which EC50 did it give?
A: 1010 nM

Q: With Cc1ccc(-c2cc3ccn(CCC[C@H](COC(F)F)Nc4cn[nH]c(=O)c4C(F)(F)F)c(=O)c3cc2F)nc1N [Example 412, (R)-6-(6-amino-5-methylpyridin-2-yl)-2-(5-(difluoromethoxy)-4-((6-oxo-5-(trifluoromethyl)-1,6-dihydropyridazin-4-yl)amino)pentyl)-7-fluoroisoquinolin-1(2H)-one] as the compound, how does the EC50 read?
A: 17.4 nM

Q: With C[C@@H](CCCn1ccc2cc(-c3ncc(C(F)F)c(N)n3)c(F)c(F)c2c1=O)Nc1cn[nH]c(=O)c1C(F)(F)F [Example 113, 6-[4-amino-5-(difluoromethyl)pyrimidin-2-yl]-7,8-difluoro-2-[(4S)-4-[[6-oxo-5-(trifluoromethyl)-1H-pyridazin-4-yl]amino]pentyl]isoquinolin-1-one] as the compound, how does the EC50 read?
A: 6.93 nM

Q: O=c1[nH]ncc(N[C@H]2CCC[C@@H](Cn3ccc4cc(-c5ncc(C(F)F)cn5)c(F)c(F)c4c3=O)C2)c1C(F)(F)F [Example 233] was tested. Which EC50 did it give?
A: 1.95 nM
